Where a SMILES comes first, the peptide text is derived from it. Where no end group is shown, it is not given here. The star is where a group is joined. C16 diacid = O=C(O)CCCCCCCCCCCCCCC(=O)*

Common to all, as to format: cell-based
For test [1], the target named is T1, human GIP receptor (Homo sapiens, UniProt P48546).
T1 sequence (P48546 22-466): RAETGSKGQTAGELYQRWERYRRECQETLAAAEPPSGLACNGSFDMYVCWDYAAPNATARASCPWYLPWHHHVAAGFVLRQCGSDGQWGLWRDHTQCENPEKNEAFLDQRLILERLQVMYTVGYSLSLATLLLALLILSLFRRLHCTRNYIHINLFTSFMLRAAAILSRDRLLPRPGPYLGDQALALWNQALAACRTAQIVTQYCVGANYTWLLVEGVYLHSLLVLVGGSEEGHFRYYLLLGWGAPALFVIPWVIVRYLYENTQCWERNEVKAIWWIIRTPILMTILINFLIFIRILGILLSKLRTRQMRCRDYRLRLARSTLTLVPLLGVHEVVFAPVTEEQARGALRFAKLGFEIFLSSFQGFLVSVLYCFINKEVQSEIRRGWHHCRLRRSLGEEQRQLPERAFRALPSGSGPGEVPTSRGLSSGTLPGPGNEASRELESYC
As to the kind of experiment: cAMP accumulation, agonism (DiscoveRx HitHunter cAMP XS assay). The arrangement: host or cells: COS-7 (transient, calcium phosphate; pCMV-Script vector). The conditions noted are these: COS-7, read-out: cAMP agonism, Emax. As to the method: (§1) Transient transfected COS-7 cells expressing the human GIP receptor were seeded in white 96-well plates with a density of 3.5*10^4/well. The day after, the cells were washed twice with Hepes buffered saline (HBS) buffer and incubated with HBS and 1 mM 3-isobutyl-1-methylxanthine (IBMX) for 30 min at 37° C. To test for agonistic properties, ligands were added and incubated for 30 min at 37° C. In order to test for antagonistic properties, the cells were preincubated with the antagonists for 10 min prior to the addition of the agonist and subsequent incubated for 20 additional min. The HitHunter™ cAMP XS assay (DiscoveRx) was carried out according to the manufacturer's instructions.
(§2) In order to develop a GIP receptor antagonist with improved antagonistic properties, individual amino acid substitutions were conducted on GIP(3-30)NH2 and in particular at positions: 16, 18, 30 or 3, 16, 18, 30. The obtained peptides were lipidated at position 18 directly or via a linker. Both the agonistic and antagonistic profiles of the compounds were tested in cAMP accumulation experiments done in transiently transfected COS-7 cells expressing the human GIP receptor. To investigate if these mutated analogues still retained their antagonistic properties, their ability to inhibit a GIP-mediated cAMP response corresponding to 50-80% of maximum activation was examined.
For orientation: Cyclic AMP is a second messenger, typically raised through Gs and lowered through Gi signalling.

For test [2], the target named is T1, human GIP receptor. As to the kind of experiment: cAMP agonism (CisBio cAMP Dynamic 2 HTRF assay). The conditions noted are these: HEK293, read-out: cAMP agonism, % Efficacy, Table 1C, HEK-293 cells. As to the method: To test for agonistic properties at the GIP receptor, compounds were diluted and added to cells as described above and incubated for 30 min at 37° C. The resulting increase in intracellular cAMP was determined using the CisBio cAMP Dynamic 2 HTRF Assay Kit as described above.

The target of test [3] is T1, human GIP receptor. As to the kind of experiment: cAMP accumulation, antagonism (DiscoveRx HitHunter cAMP XS assay). The arrangement: host or cells: COS-7 (transient, calcium phosphate; pCMV-Script vector). To be noted: Table 2, truncated GIP antagonists. As for the experimental part:
as §1, §2

Test [4] addresses T1, human GIP receptor. As to the kind of experiment: cAMP antagonism (CisBio cAMP Dynamic 2 HTRF assay). The arrangement: pCMV-Script vector. The conditions noted are these: Table 1C; CisBio; HEK-293 cells. As to the method:
The in vitro functional activity of compounds towards human GIP receptor can also be determined in HEK-293 cells transiently expressing the receptor. On the day of the assay, cells were resuspended in HBSS buffer (Gibco, 14025-50) supplemented with 20 mM HEPES (Gibco, 15630-106), 0,1% Pluronic F-68 (Gibco, 24040-032) and 0,1% casein (Sigma, C4765), and plated in 384-well plates at a density of 5000 cells/well. The GIP peptide analogues of the present disclosure were diluted in HBSS buffer supplemented with 20 mM HEPES, 0,1% pluronic, 0,1% casein and 500 uM IBMX. […] The resulting decrease in intracellular cAMP was quantitatively determined using the CisBio cAMP Dynamic 2 HTRF Assay Kit. The assay is based on a competition between native cAMP produced by cells and cAMP labeled with the dye d2 for binding to a cryptate labeled antibody. The specific signal (i.e. energy transfer signal) is inversely proportional to the concentration of cAMP in the sample.
The cAMP-d2 conjugate and the antibody anti-cAMP-Cryptate, both diluted in lysis buffer provided in the kit, were added to the cells according to the manufacturer's protocol. The resulting competitive assay was incubated for 60 minutes at room temperature, and the signal was detected by using a PerkinElmer Envision® instrument with excitation at 320 nm and emission at 665 nm and 620 nm. The HTRF ratio (emission at 665 nm/620 nm*10,000) is inversely proportional to the amount of cAMP present and is converted to nM cAMP per well using a cAMP standard curve. The dose-response curves were fitted using the non-linear regression analysis (four-logistic parameter equation) in GraphPad Prism, whereby pIC50 values were estimated.
On the technique in general: Time-resolved FRET reads energy transfer from a long-lived donor to a nearby acceptor.

Regarding `CC[C@H](C)[C@H](NC(=O)[C@H](CO)NC(=O)[C@H](Cc1ccc(O)cc1)NC(=O)[C@H](CC(=O)O)NC(=O)[C@H](CO)NC(=O)[C@@H](NC(=O)[C@H](Cc1ccccc1)NC(=O)[C@@H](N)[C@@H](C)O)[C@@H](C)CC)C(=O)N[C@@H](C)C(=O)N[C@@H](CC(C)C)C(=O)N[C@@H](CC(=O)O)C(=O)N[C@@H](CCCNC(=N)N)C(=O)N[C@H](C(=O)N[C@@H](CCCCNC(=O)CC[C@H](NC(=O)COCCOCCNC(=O)CCCCCCCCCCCCCCC(=O)O)C(=O)O)C(=O)N[C@@H](CCC(N)=O)C(=O)N[C@@H](CCC(N)=O)C(=O)N[C@@H](CC(=O)O)C(=O)N[C@@H](Cc1ccccc1)C(=O)N[C@H](C(=O)N[C@@H](CC(N)=O)C(=O)N[C@@H](Cc1c[nH]c2ccccc12)C(=O)N[C@@H](CC(C)C)C(=O)N[C@@H](CC(C)C)C(=O)N[C@@H](C)C(=O)N[C@@H](CCC(N)=O)C(=O)N[C@@H](CCCNC(=N)N)C(N)=O)C(C)C)[C@@H](C)CC` [AT234] (HELM PEPTIDE1{T.F.I.S.D.Y.S.I.A.L.D.R.I.K.Q.Q.D.F.V.N.W.L.L.A.Q.R.[am]}|PEPTIDE2{[O=C(O)CCCCCCCCCCCCCCC(=O)[*:2]].[O=C(COCCOCCN[*:1])[*:2]].[gGlu]}$PEPTIDE1,PEPTIDE2,14:R3-3:R2$$$V2.0; N-terminus assumed), the Emax at human GIP receptor [1] was determined as 26%; on human GIP receptor [2], 0%.

As to `CC[C@H](C)[C@H](NC(=O)[C@H](CO)NC(=O)[C@H](Cc1ccc(O)cc1)NC(=O)[C@H](CC(=O)O)NC(=O)[C@H](CO)NC(=O)[C@@H](NC(=O)[C@H](Cc1ccccc1)NC(=O)[C@@H](NC(=O)CNC(=O)CN)[C@@H](C)O)[C@@H](C)CC)C(=O)N[C@@H](C)C(=O)N[C@@H](CCSC)C(=O)N[C@@H](CC(=O)O)C(=O)N[C@@H](CCCNC(=N)N)C(=O)N[C@H](C(=O)N[C@@H](CCCCNC(=O)CCCCCCCCCCCCCCC(=O)O)C(=O)N[C@@H](CCC(N)=O)C(=O)N[C@@H](CCC(N)=O)C(=O)N[C@@H](CC(=O)O)C(=O)N[C@@H](Cc1ccccc1)C(=O)N[C@H](C(=O)N[C@@H](CC(N)=O)C(=O)N[C@@H](Cc1c[nH]c2ccccc12)C(=O)N[C@@H](CC(C)C)C(=O)N[C@@H](CC(C)C)C(=O)N[C@@H](C)C(=O)N[C@@H](CCC(N)=O)C(=O)N[C@@H](CCCNC(=N)N)C(=O)O)C(C)C)[C@@H](C)CC` [AT257] (H-GGTFISDYSIAMDRIK(C16 diacid)QQDFVNWLLAQR-OH; N-terminus assumed), the Emax was found to be 4% on human GIP receptor [1] and 5% at human GIP receptor [2].

On to `CC[C@H](C)[C@H](N)C(=O)N[C@@H](CO)C(=O)N[C@@H](CC(=O)O)C(=O)N[C@@H](Cc1ccc(O)cc1)C(=O)N[C@@H](CO)C(=O)N[C@H](C(=O)N[C@@H](C)C(=O)N[C@@H](CCSC)C(=O)N[C@@H](CC(=O)O)C(=O)N[C@@H](CCCCN)C(=O)N[C@H](C(=O)N[C@@H](CCCCNC(=O)CCCCCCCCCCCCCCC(=O)O)C(=O)N[C@@H](CCC(N)=O)C(=O)N[C@@H](CCC(N)=O)C(=O)N[C@@H](CC(=O)O)C(=O)N[C@@H](Cc1ccccc1)C(=O)N[C@H](C(=O)N[C@@H](CC(N)=O)C(=O)N[C@@H](Cc1c[nH]c2ccccc12)C(=O)N[C@@H](CC(C)C)C(=O)N[C@@H](CC(C)C)C(=O)N[C@@H](C)C(=O)N[C@@H](CCC(N)=O)C(=O)N[C@@H](CCCCN)C(N)=O)C(C)C)[C@@H](C)CC)[C@@H](C)CC` [AT354] (H-ISDYSIAMDKIK(C16 diacid)QQDFVNWLLAQK-NH2; N-terminus assumed), for which the “cAMP antagonism, % inhib” value came to 100.0% at human GIP receptor [3] and 91% on human GIP receptor [4]. For the same compound, at human GIP receptor [3] (cAMP antagonism, nM (IC50)), the IC50 turned out to be 10 nM. Besides, the Emax on human GIP receptor [2] stood at 0%.

With `CC[C@H](C)[C@H](NC(=O)[C@H](CO)NC(=O)[C@H](Cc1ccc(O)cc1)NC(=O)[C@H](CC(=O)O)NC(=O)[C@@H](N)CO)C(=O)N[C@@H](C)C(=O)N[C@@H](CCSC)C(=O)N[C@@H](CC(=O)O)C(=O)N[C@@H](CCCCN)C(=O)N[C@H](C(=O)N[C@@H](CCCCNC(=O)CCCCCCCCCCCCCCC(=O)O)C(=O)N[C@@H](CCC(N)=O)C(=O)N[C@@H](CCC(N)=O)C(=O)N[C@@H](CC(=O)O)C(=O)N[C@@H](Cc1ccccc1)C(=O)N[C@H](C(=O)N[C@@H](CC(N)=O)C(=O)N[C@@H](Cc1c[nH]c2ccccc12)C(=O)N[C@@H](CC(C)C)C(=O)N[C@@H](CC(C)C)C(=O)N[C@@H](C)C(=O)N[C@@H](CCC(N)=O)C(=O)N[C@@H](CCCCN)C(N)=O)C(C)C)[C@@H](C)CC` [AT355] (H-SDYSIAMDKIK(C16 diacid)QQDFVNWLLAQK-NH2; N-terminus assumed), the results for the “cAMP antagonism, % inhib” value at human GIP receptor [3] and at human GIP receptor [4] were 100.0% and 65%, respectively. The Emax at human GIP receptor [2] turned out to be 0%.

In the case of `CC[C@H](C)[C@H](NC(=O)[C@H](CO)NC(=O)[C@@H](N)Cc1ccc(O)cc1)C(=O)N[C@@H](C)C(=O)N[C@@H](CCSC)C(=O)N[C@@H](CC(=O)O)C(=O)N[C@@H](CCCCN)C(=O)N[C@H](C(=O)N[C@@H](CCCCNC(=O)CCCCCCCCCCCCCCC(=O)O)C(=O)N[C@@H](CCC(N)=O)C(=O)N[C@@H](CCC(N)=O)C(=O)N[C@@H](CC(=O)O)C(=O)N[C@@H](Cc1ccccc1)C(=O)N[C@H](C(=O)N[C@@H](CC(N)=O)C(=O)N[C@@H](Cc1c[nH]c2ccccc12)C(=O)N[C@@H](CC(C)C)C(=O)N[C@@H](CC(C)C)C(=O)N[C@@H](C)C(=O)N[C@@H](CCC(N)=O)C(=O)N[C@@H](CCCCN)C(N)=O)C(C)C)[C@@H](C)CC` [AT357] (H-YSIAMDKIK(C16 diacid)QQDFVNWLLAQK-NH2; N-terminus assumed), the “cAMP antagonism, % inhib” value at human GIP receptor [3] was 100.0%; at human GIP receptor [4] it was 40%. The Emax at human GIP receptor [2] amounted to 0%.

Consider “AT356: GIP 9-30, C-term NH2, C16-diacid at position 18, [H18K] (DYSIAMDKIK(C16 diacid)QQDFVNWLLAQK-NH2; N-terminus assumed; SMILES CC[C@H](C)[C@H](NC(=O)[C@H](CO)NC(=O)[C@H](Cc1ccc(O)cc1)NC(=O)[C@@H](N)CC(=O)O)C(=O)N[C@@H](C)C(=O)N[C@@H](CCSC)C(=O)N[C@@H](CC(=O)O)C(=O)N[C@@H](CCCCN)C(=O)N[C@H](C(=O)N[C@@H](CCCCNC(=O)CCCCCCCCCCCCCCC(=O)O)C(=O)N[C@@H](CCC(N)=O)C(=O)N[C@@H](CCC(N)=O)C(=O)N[C@@H](CC(=O)O)C(=O)N[C@@H](Cc1ccccc1)C(=O)N[C@H](C(=O)N[C@@H](CC(N)=O)C(=O)N[C@@H](Cc1c[nH]c2ccccc12)C(=O)N[C@@H](CC(C)C)C(=O)N[C@@H](CC(C)C)C(=O)N[C@@H](C)C(=O)N[C@@H](CCC(N)=O)C(=O)N[C@@H](CCCCN)C(N)=O)C(C)C)[C@@H](C)CC)”, for which the “cAMP antagonism, nM (IC50)” value in the test with human GIP receptor [3] is reported as “No antagonism”.

One may read the IC50 as the point on the concentration scale where inhibition reaches its midpoint.

The record behind these values is patent US12187773B2, “Modified GIP peptide analogues” (Antag Therapeutics ApS, priority 2018, dated 2025).
